Like-named read-outs stand apart in the source and are kept apart here.
What was measured:
[1] = type: in vitro ADME; conditions: 37° C., 20 μg/mL
Procedure: (§1) Enzymatic stability studies involving plasma and intestinal homogenate were performed with 90% biological fluids.
(§2) One blank (drug free) incubation was performed for each biological fluid. All biological fluid tubes (open) were pre-incubated without PMPA prodrugs in a shaker bath at 37° C. and 100 oscillation/min for 5 minutes. PMPA prodrugs was added to the test incubations (final concentration: 20 μg/mL, mixed and maintained at 37° C. and 100 oscillations/min. Samples (50 μL) were withdrawn at 0, 30, and 60 minutes and the reaction was quenched with 100 μL of 0.1% trifluoroacetic acid (TFA) in acetonitrile. Quenched samples were centrifuged for 5 minutes at 14,000 rpm in an Eppendorf Centrifuge 5402, and the supernatant was used for HPLC analysis.
(§3) For each incubation, the observed rate constant for degradation was calculated by plotting the log of the peak area of PMPA prodrugs versus time of incubation (min). The slope was the observed rate constant (kobs). The half life was calculated according to the following equation: [formula]
(§4) If the observed rate constant for degradation was less than 0.01 min^−1, then t½ was expressed as stable.

[2] = Enzymatic stability in dog liver homogenate (S9); type: in vitro ADME; conditions: 37° C., 20 μg/mL
Procedure: Dog liver was obtained fresh from Pharmakon USA (Waverly, Pa.). Liver homogenate was prepared following a standard protocol. Dog liver was rinsed three times with ice-code 50 mM sodium/potassium phosphate buffer and homogenized with a Tekmar Tissumizer homogenizer (VWR 33995-060). The homogenate was centrifuged at 9000 g (11,000 rpm for Eppendorf Centrifuge 5402; Brinkman Instruments, Westbury, N.Y.) at 4° C. for 20 minutes. The supernatant was designated at the S9 fraction. The concentration of protein in the S9 fraction was determined using a Bio-Rad Protein Assay Kit II, with bovine serum albumin as standard. Esterase activity was determined using o-nitrophenyl butyreate as substrate and activity was calculated based on the increase in absorbance at 420 nm after a 1 min incubation. The homogenates were stored as 1.0 mL aliquots at −70° C.
as §2, §3, §4

[3] = type: in vitro ADME; conditions: dog intestinal homogenate, 37° C., 20 μg/mL
Procedure: Dog intestinal segments (jejunum/ileum) were obtained fresh from Pharmakon USA (Waverly, Pa.) and intestinal homogenate was prepared as described for liver. The intestinal homogenates were stored as 1.0 mL aliquots at −70° C.
as §1, §2, §3, §4

[4] = Partition coefficient (Log PC); type: physicochemical
[5] = Oral bioavailability of PMPA and PMPA carbonates in beagle dogs; type: in vivo; conditions: for % of PMPA IV (1 mg/kg) AUC: PMPA: 6.2-10 mg eq of PMPA/kg, PMPA in plasma; for % of PMPA IV (1 mg/kg) AUC: Prodrug: intact prodrug in plasma; for % of PMPA IV (1 mg/kg) AUC: Monoester: monoester in plasma; for % of PMPA IV (1 mg/kg) AUC: other: other species in plasma
Procedure: PMPA (9-[(R)-2-(phosphonomethoxy)propyl]adenine) and PMPA carbonates were examined to determine the effect of dose on the pharmacokinetics of PMPA in beagle dogs, in particular the bioavailability of PMPA following oral administration to beagle dogs.
The intravenous formulations used as standards were isotonic aqueous solutions containing 50 mg/mL PMPA. Compound was added to 10 mL of WFI (water for injection from Abbott Laboratory) and 1N NaOH was added to adjust the pH to 7.4. The solutions were diluted to 15 mL with WFI and sterile filtered with a 0.2 μm filter. The PMPA dose was 10 mg/kg (0.2 mL/kg).
The intravenous formulation for a 1 mg/kg dose was prepared as described above except only 75 mg of PMPA was added to WFI and the final concentration was 5 mg/mL. The dose was 1 mg/kg (0.2 mL/kg). Oral formulations of carbonates were prepared in 20-40% PEG 400/50 mM citric acid and were adjusted to pH 2.2.
Two groups of five adult male beagle dogs were used. The mean body weight at the time of the first does was 9.6±0.4 Kg (range 9.2-10.2). The dogs were fasted 12-18 hours prior to dosing and until 6 hours post-dose. For pentagastrin pretreatment, dogs were given a single intramuscular injection of pentagastrin (Peptavlon 0.25 mg/mL, Ayerst Laboratories, Inc., Philadelphia, Pa.) at a dose of 6 μg/kg, 20 minutes prior to dosing. Water was provided ad lib.
Each formulation was administered as a single dose to five male beagle dogs. Individual vials of each formulation were provided for each animal. The intravenous formulation was administrated via a cephalic vein. The oral suspension was administered by gavage, followed by two 10 mL water washes. At least one week washout period was allowed between administrations.
Blood samples (4.0 mL) were collected by direct jugular access from each animal into heparinized tubes. Animals remained conscious throughout the sample collection period. Blood was processed immediately for plasma by centrifugation at 2000 rpm for 10 minutes. Plasma samples were frozen and maintained at ≦−20° C. until analyzed.
Urine samples were collected over 0-24 and 24-48 hours time periods. Urine samples from 0-24 and 24-48 hours were divided into aliquots and mixed based on the volume collected and analyzed to determine amount of PMPA recovered from urine during 0-48 hours.
PMPA in Plasma and Urine was determined as follows. PMEA (9-(2-phosphono-methoxyethyl)adenine; adefovir) was used as the internal standard for both analyses. The total concentration of PMPA in dog plasma or urine samples was determined by derivatizing PMPA and PMEA with chloroacetaldehyde to yield a highly fluorescent N^1,N^6-ethenoadenine derivative as described (Russell, J. et al. (1991) Determination of 9-[(2-Phosophonylmethoxy)-ethyl]Adenine in Rat Urine by High-Performance Liquid Chromatography with Fluorescence Detection. J. Chromatogr. (Netherlands) 572, 321-326).
Sample Extraction for PMPA in plasma and urine was performed as follows. Plasma (200 μL) and internal standard ([…]) were mixed with 400 μL of acetonitrile containing 0.1% TFA to precipitate protein. Samples were then evaporated to dryness under reduced pressure at room temperature (Savant SpeedVac). Urine samples (20 μL) and internal standard (30 μL of 10 μg/mL PMEA providing a final PMEA concentration of 1.5 μg/mL) were used directly for derivatization without drying.
The samples were derivatized for analysis as follows. Dried plasma samples or urine samples were reconstituted or mixed in 200 μL derivatization cocktail (0.34% chloroacetaldehyde in 100 mM sodium acetate, pH 4.5), vortexed, and centrifuged for 10 minutes at 14,000 rpm in an Eppendorf Centrifuge 5402. Supernatant was then transferred to a clean screw capped tube and incubated at 95° C. for 40 minutes. Derivatized samples were quenched on ice and evaporated to dryness under reduced pressure at room temperature. […]

[6] = Enzymatic stability in human intestinal homogenate (S9); type: in vitro ADME; conditions: human intestinal homogenate (values in parentheses), 37° C., 20 μg/mL
Procedure: Human intestinal homogenate (S9) was obtained from Keystone Skin Bank (Exton, Pa.) at concentration of 20 mg protein/mL.
as §1, §2, §3, §4

[7] = test system: MT-2 cells; assay: Cytotoxicity in MT-2 cells; type: cell-based; conditions: MT-2 cells; read-out: CC50 (concentration to kill 50% of the cells)
Procedure: (§5) PMPA (9-[(R)-2-(phosphonomethoxy)propyl]adenine) and PMPA carbonates were examined to determine their activity against HIV-1. The antiviral activity of the carbonates 5a, 5c-g against HIV-1 (IIIB) was determined in MT-2 cells and the IC50 (50% inhibitory concentration) and CC50 (concentration to kill 50% of the cells) values were measured. […] The increased activity can be attributed to increased cellular uptake of the prodrugs followed by effective intracellular conversion to PMPA, which undergoes subsequent phosphorylation to the antivirally active diphosphate metabolite. […] The partition coefficient values support this hypothesis, with all prodrugs being more lipophilic (logP=0.6-3.2) compared to PMPA (logP=−2.5). [drawing 32]

[8] = test system: HIV-1 (IIIB); assay: microbe, parasite or virus in culture; type: cell-based; conditions: MT-2 cells; for IC50: read-out: IC50 (50% inhibitory concentration)
Source text: PMPA (9-[(R)-2-(phosphonomethoxy)propyl]adenine) and PMPA carbonates were examined to determine their activity against HIV-1.

[9] = Cytotoxicity in MT-2 cells; type: cell-based; conditions: human
Procedure: as §5

| SMILES | Biological t½ (min) (Dog) Plasma [1] | Biological t½ (min) (Dog) Liver [2] | Biological t½ (min) (Dog) Intestine [3] | Log PC pH 7.4 [4] | % of PMPA IV (1 mg/kg) AUC: PMPA [5] | % of PMPA IV (1 mg/kg) AUC: Prodrug [5] | % of PMPA IV (1 mg/kg) AUC: Monoester [5] | % of PMPA IV (1 mg/kg) AUC: other [5] | Biological t½ (min) (Human) Intestine [6] | CC50 [7] | Urinary Recovery (% as PMPA) ([5]; urine 0-48 hours) | IC50 ([8]; HIV-1 (IIIB)) | increased potency compared to PMPA ([8]; HIV-1 (IIIB), relative to PMPA) | CC50 [9] | IC50 ([8]; Human immunodeficiency virus 1, MT2, HIV-1 (IIIB)) | SI, Selectivity Index (CC50/IC50) ([8]; HIV-1) |
| --- | --- | --- | --- | --- | --- | --- | --- | --- | --- | --- | --- | --- | --- | --- | --- | --- |
| CCOC(=O)OC(C)OP(=O)(CO[C@H](C)Cn1cnc2c(N)ncnc21)OC(C)OC(=O)OCC (stereo partly drawn) [Bis-EtCOE PMPA] | 42.6 min | <5 min | 62.4 min | – | – | – | – | – | – | – | – | – | – | – | – | – |
| CCOC(=O)OCOP(=O)(CO[C@H](C)Cn1cnc2c(N)ncnc21)OCOC(=O)OCC [Bis-EtCOM PMPA, Bis-ethyl Oxymethyl Carbonate of PMPA] | 16.6 min | <5 min | 23.3 min | 0.6 | 29.3 ± 3.4% | 0% | −2% | 0% | (<5) min | – | – | – | – | – | – | – |
| CC(C)COC(=O)OCOP(=O)(CO[C@H](C)Cn1cnc2c(N)ncnc21)OCOC(=O)OCC(C)C [Bis-IBu COM PMPA] | <5 min | <5 min | 15 min | 2.0 | 24.5 ± 8.82% | – | – | – | (<5) min | – | – | – | – | – | – | – |
| CCCN(CCC)C(=O)OCOP(=O)(CO[C@H](C)Cn1cnc2c(N)ncnc21)OCOC(=O)N(CCC)CCC [Bis-di-n-proNCOM PMPA] | Stable (If the observed rate constant for degradation was less than 0.01 min^−1, then t½ was expressed as stable) | 76 min | Stable (If the observed rate constant for degradation was less than 0.01 min^−1, then t½ was expressed as stable) | – | – | – | – | – | – | – | – | – | – | – | – | – |
| CC(C)OC(=O)OCOP(=O)(CO[C@H](C)Cn1cnc2c(N)ncnc21)OCOC(=O)OC(C)C [Bis-isopropylCOM PMPA, Bis Isopropyl Oxymethyl Carbonate of PMPA] | 20.5 min | <5 min | 52.6 min | 1.25 | 35.8 ± 14.7% | 0% | 3.1% | 0% | (<5) min | – | – | – | – | – | – | – |
| CCCCOC(=O)OCOP(=O)(CO[C@H](C)Cn1cnc2c(N)ncnc21)OCOC(=O)OCCCC [Bis-nBuCOM PMPA, Bis-n-butyl Oxymethyl Carbonate of PMPA] | <5 min | <5 min | <5 min | 2.7 | 17.3 ± 2.57% | – | – | – | (<5) min | – | – | – | – | – | – | – |
| C[C@H](Cn1cnc2c(N)ncnc21)OCP(=O)(OCOC(=O)OC(C)(C)C)OCOC(=O)OC(C)(C)C [Bis-t-Bu COM PMPA] | 21.2 min | 14.9 min | 26.6 min | 1.93 | 36.2 ± 6.76% | – | – | – | (<5) min | 10 µM | 34.9% | 200 nM | 2.5 fold | – | – | – |
| C[C@H](Cn1cnc2c(N)ncnc21)OCP(=O)(OCOC(=O)NC(C)(C)C)OCOC(=O)NC(C)(C)C [Bis-tBuNCOM PMPA] | 99.5 min | 166.5 min | 107.5 min | – | 8.86 ± 2.38% | 9.97% | – | – | – | – | – | – | – | – | – | – |
| C[C@H](Cn1cnc2c(N)ncnc21)OCP(=O)(O)O [PMPA, 9-[(R)-2-(phosphonomethoxy)propyl]adenine, reference compound] | – | – | – | – | – | – | – | – | – | – | – | – | – | 250 µM | 500 nM | 500 |
